According to US20250034089A1, “TETRAHYDROCARBAZOLE COMPOUND, AND PHARMACEUTICAL COMPOSITION AND USE THEREOF” (NAIN BIOTECH (HANGZHOU) CO., LTD., priority 2021, published 2025):

What was measured:
OCT4 protein = biological target: T1, OCT4 protein (Homo sapiens, UniProt Q01860); test: Inhibitory effect on OCT4 protein in HeLa cells (Western blot); assay type: cell-based; details: FIG. 2
T1 construct: HeLa cell line 3A11 with endogenous high expression of OCT4; endogenous in cells; host or cells: HeLa cell line 3A11
T1 sequence (Q01860 whole entry): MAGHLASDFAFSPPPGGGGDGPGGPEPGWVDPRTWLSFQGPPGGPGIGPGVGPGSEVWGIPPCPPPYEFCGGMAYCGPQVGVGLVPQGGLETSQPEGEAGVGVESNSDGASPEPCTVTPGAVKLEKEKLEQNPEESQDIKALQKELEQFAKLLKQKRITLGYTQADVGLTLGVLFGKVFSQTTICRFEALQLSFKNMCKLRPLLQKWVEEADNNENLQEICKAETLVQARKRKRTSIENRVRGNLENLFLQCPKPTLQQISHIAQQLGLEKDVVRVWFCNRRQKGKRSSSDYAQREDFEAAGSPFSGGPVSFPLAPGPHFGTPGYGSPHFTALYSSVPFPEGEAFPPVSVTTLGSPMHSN
Source text: • 1) Cell source: HeLa cell line 3A11 with endogenous high expression of OCT4, constructed by the inventor's laboratory (Zhou Y et al. Endogenous authentic OCT4A proteins directly regulate FOS/AP-1 transcription in physiological cancer cells. Cell Death Dis. 2018, 9:585). • 2) Cell culture and passage: All of the above cells were adherently cultured in complete culture medium [to a 6-cm culture dish (#430166, Corning) or T75 culture bottle (#3276, Corning) containing DMEM high-sugar basal medium (#SH30243.01B, HyClone) was added a final concentration of 10% FBS (#1101-500, Shanghai Pufei) and Penicillin-Streptomycin dual antibody (#SV30010, HyClone)]. The culture dish (bottle) was placed in a cell culture incubator (#3111, Thermo Fisher Scientific) at 37° C., 5% CO2, and saturated humidity. […] The supernatant was discarded, and the cell clumps were resuspended with fresh complete culture medium, blown into single cells again, passaged and inoculated into new culture dishes (bottles) in a ratio of 1:3-1:6, the complete culture medium was supplemented, and then placed in a cell culture incubator at 37° C. and 5% CO2 for culture. • 3) Cell dosing treatment: The above-mentioned HeLa cells were digested, counted, and inoculated into each well of the 96 well cell culture plate (#3988, Corning) at a density of 5000 cells/200 μl culture medium. […]

[1] = test system: HeLa (human cervical cancer cells); test: In vitro proliferation inhibition (CCK-8), HeLa; assay type: cell-based
Source text: • 1) Cell sources: HeLa (human cervical cancer cells), CaSki (human cervical cancer intestinal metastasis cells), Huh7 (human liver cancer cells), HepG2 (human liver cancer cells), Hep3B (human liver cancer cells) were purchased from the Chinese Academy of Sciences cell bank (Shanghai); LO2 (human normal liver cells) and HcerEpic (human normal uterine epithelial cells) were from ATCC. • 2) Cell culture and passage: The cell culture and passage method is the same as that described in “The inhibitory effect of compounds on the OCT4 protein in tumor stem cells (CSC)”. • 3) Cell dosing treatment: The each type of cells mentioned above was digested, counted, and inoculated in each well of the 96 well cell culture plate (#3988, Corning) at a density of 5000 cells/200 μl culture medium. They were cultured in a cell culture incubator at 37° C. and 5% CO2 for 24 hours to allow the cells to fully adherent to the wall. Then, the original culture medium was replaced with complete culture medium containing gradient diluted KZT-A5 (each concentration with 3 repeated wells) as well as DMSO (#D5879, Sigma Aldrich) solvent control, and they are cultured for additional 72 hours. • 4) Pharmacodynamic test and statistics: First, the morphology of cells treated with the above compounds was observed, photographed and recorded using an inverted phase contrast microscope (X71, Olympus). Then the original culture medium was replaced with phenol red free culture medium containing CCK-8 detection reagent (#E606335, Shanghai Shenggong) respectively, and they are cultured in the incubator for additional 2 hours. Then the OD450 nm absorbance value (OD value) was measured on a multifunctional enzyme-linked immunosorbent assay (168-1130, Bio Rad). After the cells were treated with the test compound, the equations for calculating the cell survival rate or cell growth rate is: survival rate=GD value of the treated group/OD value of the control group×100%; the equations for calculating the growth inhibition rate of compounds on cell proliferation is: inhibition rate=(OD value of control group−OD value of the treated group)/OD value of control group×100%. Further, the IC50 of each compound was calculated in SPSS based on the inhibition rate.
• 1) Cell sources: Huh7 (human liver cancer cells), HepG2 (human liver cancer cells), Hep3B (human liver cancer cells), and HeLa (human cervical cancer cells) were all purchased from the Chinese Academy of Sciences cell bank (Shanghai), while LO2 (human normal liver cells) was obtained from ATCC. • 2) Cell culture and passage: The cell culture and passage method is the same as that described in “The inhibitory effect of compounds on human tumor cell lines from different tissue sources (1)”. • 3) Cell dosing treatment: The cell dosing treatment method is the same as that described in “The inhibitory effect of compounds on human tumor cell lines from different tissue sources (1). • 4) Pharmacodynamic test and statistics: The pharmacodynamic test and statistics method is the same as that described in “The inhibitory effect of compounds on human tumor cell lines from different tissue sources (1)”. The IC50 value data of the compound on each type of tumor cells is the average±standard deviation of three wells in one test.

COc1cc(/C=C2\CCc3c([nH]c4ccc(C)cc34)C2=O)ccc1O [KZT-A5]
dose dependence of inhibition of OCT4 protein expression (OCT4 protein; HeLa 3A11, 10 μM vs 100 μM): dose-dependently inhibit the expression of OCT4 protein
inhibitory effect on OCT4 protein (downregulation) (OCT4 protein; HeLa cell line 3A11, 48-72 hours): most significant effect in downregulating OCT4 protein
IC50 ([1]; 72 hours, CCK-8, average of three wells in one test): 570 nM
IC50 ([1]; Homo sapiens, 72 h, CCK-8, average of three wells in one test): < 1000 nM
IC50 ([1]; Homo sapiens, test (2), average±standard deviation of three wells): 700 ± 10 nM
inhibitory effect compared with AH057 ([1]; Table 3): comparable to AH057
